Test [1] addresses T1, MPO (Homo sapiens, UniProt P05164).
T1 construct: purchased Abnova, Taiwan
T1 sequence (P05164 49-745): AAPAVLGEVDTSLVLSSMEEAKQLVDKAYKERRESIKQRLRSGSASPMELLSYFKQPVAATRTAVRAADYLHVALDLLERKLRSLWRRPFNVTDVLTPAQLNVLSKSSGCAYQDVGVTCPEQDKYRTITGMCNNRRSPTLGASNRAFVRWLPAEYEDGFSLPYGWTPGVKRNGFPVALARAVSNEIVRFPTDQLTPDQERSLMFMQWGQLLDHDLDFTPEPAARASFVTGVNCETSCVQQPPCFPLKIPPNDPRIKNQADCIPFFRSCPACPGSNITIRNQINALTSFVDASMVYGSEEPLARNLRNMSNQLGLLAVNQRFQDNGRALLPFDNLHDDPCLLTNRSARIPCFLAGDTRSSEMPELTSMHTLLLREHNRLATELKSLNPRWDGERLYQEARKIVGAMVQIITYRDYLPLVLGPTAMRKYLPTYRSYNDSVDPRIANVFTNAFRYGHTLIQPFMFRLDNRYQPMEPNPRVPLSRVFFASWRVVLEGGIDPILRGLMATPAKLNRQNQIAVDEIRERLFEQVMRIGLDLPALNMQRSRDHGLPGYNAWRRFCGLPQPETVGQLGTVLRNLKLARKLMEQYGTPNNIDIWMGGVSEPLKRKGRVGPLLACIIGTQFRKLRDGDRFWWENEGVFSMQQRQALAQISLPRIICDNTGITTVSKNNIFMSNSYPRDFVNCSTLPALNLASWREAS
The test is described as follows: MPO inhibitor screening assay kit, peroxidation assay. Format: biochemical. The settings on record: ADHP substrate, synthesized peptides. The text has this:
(§1) The inhibitory effect of peptides on MPO was estimated using an MPO inhibitor screening assay kit (Abnova, Taiwan), which was used to assess in both the peroxidation and chlorination activities of MPO. Peroxidation assay utilizes the peroxidase component of MPO. During the reaction, hydrogen peroxide reacts with 10-acetyl-3,7-dihydroxyphenoxazine (ADHP) to yield resorufin, a highly fluorescent compound. The chlorination assay utilizes non-fluorescent 2-[6-(4-aminophenoxy)-3-oxo-3H-xanthen-9-yl]-benzoic acid (APF), which is selectively cleaved by hypochlorite to produce fluorescein. The 4-aminobenzhydrazide was used as positive control. The MPO inhibitory activity was determined according to the kit instructions.

Test [2] deals with T1, MPO. The test is described as follows: MPO inhibitor screening assay kit, chlorination assay. Format: biochemical. The following applies: APF substrate, synthesized peptides.
Excerpt: as §1

Where no end group is shown, it is not given here.

DVSDLDAD: the 50% inhibitory concentration (IC50) was over 500 µM in test [1] and 296 µM in test [2].

Consider GELALKD [GELALKD], for which the figures for the IC50 in test [1] and in test [2] were over 500 µM and 122 µM, respectively.

Turning to KFCSGHA [KFCSGHA], the figures for the IC50 in test [1] and in test [2] were 40.3 µM and 108 µM, respectively.

In the case of ACGSDGK [ACGSDGK], the figures for the IC50 in test [1] and in test [2] were 17.9 µM and 32.3 µM, respectively.

Take GDAFDKA [GDAFDKA]: the IC50 in test [1] and in test [2] was over 500 µM in each case.

With DASHGHSG, the IC50 in test [1] and in test [2] was over 500 µM in each case.

By IC50 is commonly meant the concentration needed to halve the response being measured. A higher IC50 goes with a need for much substance.

(Values after publication PMC9104108, “Purification and Identification of Novel Myeloperoxidase Inhibitory Antioxidant Peptides from Tuna (Thunnas albacares) Protein Hydrolysates” (Molecules, 2022).)
